According to BindingDB's records for patent US20230339939 (Bayer Aktiengesellschaft, 2023):
pIC50: −log10 of the molar value.

Tests used:
[1] = molecular target: T1, Casein kinase I isoform alpha (Homo sapiens, UniProt P48729); assay: CSNK1A1 High ATP Assay
From the text: (§1) Recombinant fusion protein of N-terminal Glutathion-S-Transferase (GST) and full-length human CSNK1A1, expressed by baculovirus infected insect cells and purified via Glutathion affinity chromatography, was purchased from Life Technologies (product no. PV4174) and used as enzyme. As substrate for the kinase reaction the biotinylated peptide biotin-Ahx-KRRRAL-pS-VASLPGL (C-terminus in amide form) was used which can be purchased e.g. from the company Biosyntan (Berlin-Buch, Germany). For the assay 50 nl of a 100 fold concentrated solution of the test compound in DMSO was pipetted into a white low volume 384-well microtiter plate (Greiner Bio-One, Frickenhausen, Germany), 2 μL of a solution of CSNK1A1 in aqueous assay buffer [50 mM HEPES pH 7.5, 10% (v/v) glycerol, 10 mM MgCl2, 50 mM NaCl, 1 mM dithiothreitol, 0.01% (w/v) bovine serum albumin, 0.01% (v/v) Triton X-100] were added and the mixture was incubated for 15 min at 22 C. to allow pre-binding of the test compounds to the enzyme before the start of the kinase reaction. […] Subsequently 2.5 μL of the kinase detection reagent (1.2 fold more concentrated than recommended by the producer) were added, the resulting mixture was incubated at 22 C. for 1 h and then the luminescence measured with a suitable measurement instrument (e.g. Viewlux from Perkin-Elmer).

[2] = molecular target: T1, Casein kinase I isoform alpha; assay: CSNK1A1 Inhibitory activity Assay 2
From the text: as §1

[3] = molecular target: Casein kinase I isoform delta (Homo sapiens, UniProt P48730); assay: CSNK1D-Inhibitory Activity Assay
Sequence of Casein kinase I isoform delta (P48730 whole entry, canonical isoform): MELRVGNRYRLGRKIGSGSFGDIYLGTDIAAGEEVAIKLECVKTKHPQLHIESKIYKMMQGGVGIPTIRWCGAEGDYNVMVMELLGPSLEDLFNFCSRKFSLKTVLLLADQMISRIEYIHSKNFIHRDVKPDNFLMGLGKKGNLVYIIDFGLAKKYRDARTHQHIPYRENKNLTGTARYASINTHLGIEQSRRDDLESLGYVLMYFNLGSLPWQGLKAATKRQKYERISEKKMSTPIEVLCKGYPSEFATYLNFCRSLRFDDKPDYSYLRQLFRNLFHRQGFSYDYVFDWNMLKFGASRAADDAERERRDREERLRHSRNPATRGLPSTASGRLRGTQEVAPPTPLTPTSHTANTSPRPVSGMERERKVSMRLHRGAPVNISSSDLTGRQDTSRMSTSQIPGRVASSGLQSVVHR
Procedure: as §1, with “CSNK1D,” for “CSNK1A1,”, “PV3665)” for “PV4174)”, “Btn-Ahx-[…]” for “biotin-Ahx-KRRRAL-pS-VASLPGL”, “1536-well” for “low volume 384-well”, “CSNK1D” for “CSNK1A1”

[4] = molecular target: Epidermal growth factor receptor (Homo sapiens, UniProt P00533); assay: WT-EGFR Kinase Assay
Sequence of Epidermal growth factor receptor (P00533 whole entry): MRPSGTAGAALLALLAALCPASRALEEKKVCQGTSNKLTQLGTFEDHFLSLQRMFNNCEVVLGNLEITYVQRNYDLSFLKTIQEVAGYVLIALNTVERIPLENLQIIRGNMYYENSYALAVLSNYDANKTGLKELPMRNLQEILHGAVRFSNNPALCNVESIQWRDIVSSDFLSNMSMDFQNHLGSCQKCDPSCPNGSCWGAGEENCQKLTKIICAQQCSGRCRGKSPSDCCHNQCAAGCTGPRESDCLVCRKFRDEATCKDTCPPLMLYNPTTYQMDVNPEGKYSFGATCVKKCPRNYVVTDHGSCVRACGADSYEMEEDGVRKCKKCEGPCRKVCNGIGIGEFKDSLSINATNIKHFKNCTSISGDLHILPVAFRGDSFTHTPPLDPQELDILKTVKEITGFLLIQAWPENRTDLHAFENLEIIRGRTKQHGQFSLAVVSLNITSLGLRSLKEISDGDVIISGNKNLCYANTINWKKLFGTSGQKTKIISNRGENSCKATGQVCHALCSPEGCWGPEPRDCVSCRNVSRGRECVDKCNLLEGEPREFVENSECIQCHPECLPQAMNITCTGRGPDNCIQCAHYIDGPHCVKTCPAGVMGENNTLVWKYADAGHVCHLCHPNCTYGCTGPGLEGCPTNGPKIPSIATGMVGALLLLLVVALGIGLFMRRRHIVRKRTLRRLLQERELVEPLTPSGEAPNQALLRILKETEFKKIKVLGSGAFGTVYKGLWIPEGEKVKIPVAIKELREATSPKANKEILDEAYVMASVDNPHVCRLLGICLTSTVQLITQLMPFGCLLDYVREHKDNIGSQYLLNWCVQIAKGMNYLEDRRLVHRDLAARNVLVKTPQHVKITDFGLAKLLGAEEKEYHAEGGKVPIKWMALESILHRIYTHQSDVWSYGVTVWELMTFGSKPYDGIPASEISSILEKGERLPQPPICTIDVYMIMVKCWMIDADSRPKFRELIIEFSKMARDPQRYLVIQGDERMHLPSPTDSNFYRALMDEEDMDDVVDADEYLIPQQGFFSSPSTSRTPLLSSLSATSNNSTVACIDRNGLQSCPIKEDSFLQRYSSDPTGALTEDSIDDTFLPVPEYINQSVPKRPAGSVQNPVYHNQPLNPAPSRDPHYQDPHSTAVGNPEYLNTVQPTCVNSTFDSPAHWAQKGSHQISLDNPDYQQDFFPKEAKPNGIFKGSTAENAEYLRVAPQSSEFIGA
Procedure: For the assay 50 nl of a 100 fold concentrated solution of the test compound in DMSO was pipetted into either a black low volume 384 well microtiter plate or a black 1536 well microtiter plate (both Greiner Bio-One, Frickenhausen, Germany), 2 μL of a solution of EGFR in aqueous assay buffer [50 mM Hepes pH 7.0, 10 mM MgCl2, 1 mM dithiothreitol, 0.5 mM EGTA, 0.3 mM activated sodium ortho-vanadate, 0.005% (w/v) bovine serum albumin, 0.005% (v/v) Tween-20] were added and the mixture was incubated for 15 min at 22° C. to allow pre-binding of the test compounds to the enzyme before the start of the kinase reaction. […] The concentration of EGFR was adjusted depending of the activity of the enzyme lot and was chosen appropriate to have the assay in the linear range, typical concentration was 7.6 pg/μL. The reaction was stopped by the addition of 3 μL of a solution of HTRF detection reagents (83.3 nM streptavidine-XL665 [Cisbio Bioassays, Codolet, France] and 1.67 nM PT66-Tb-Cryptate, a terbium-cryptate labelled anti-phospho-tyrosine antibody from Cisbio Bioassays [instead of the PT66-Tb-cryptate PT66-Eu-Chelate from Perkin Elmer can also be used]) in an aqueous EDTA-solution (133.3 mM EDTA, 0.2% (w/v) bovine serum albumin in 50 mM HEPES pH 7.5). […]

T1 sequence (P48729 whole entry, the tested form may be a part, canonical isoform): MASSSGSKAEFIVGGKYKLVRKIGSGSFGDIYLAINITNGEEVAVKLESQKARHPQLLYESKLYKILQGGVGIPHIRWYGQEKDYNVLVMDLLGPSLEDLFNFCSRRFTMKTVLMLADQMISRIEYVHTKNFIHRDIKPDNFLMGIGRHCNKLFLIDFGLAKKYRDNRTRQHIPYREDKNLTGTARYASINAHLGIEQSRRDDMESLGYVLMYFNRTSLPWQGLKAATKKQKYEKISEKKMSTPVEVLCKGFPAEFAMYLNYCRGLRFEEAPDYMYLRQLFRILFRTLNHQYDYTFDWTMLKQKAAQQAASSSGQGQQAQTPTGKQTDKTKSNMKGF

CC(C)C(C(=O)Nc1cc(-c2[nH]c3ccc(F)nc3c2-c2ccccn2)ccn1)c1ccc(F)cc1 (single isomer, unassigned) [US20230339939, Example 24] showed a pIC50 [1] of 7.37, a pIC50 [2] of 8.32 and a pIC50 [3] of 7.98.

Work on O=C(Cc1ccc(F)cc1)Nc1cc(-c2[nH]c3c(CC4CC4)cc(F)nc3c2-c2ccccn2)ccn1 [US20230339939, Example 37] yielded a pIC50 [4] of less than 4.70, a pIC50 [1] of 8.02 and a pIC50 [2] of 8.40. For the same compound, the pIC50 [3] was 8.24.
